One data set has as its system U87MG tumor. Briefly: Tumor xenograft model, U87MG, tumor growth inhibition. The class given is in vivo, nude mice (BALB/cA nu/nu). The note with it: for Tumor growth inhibition rate, % TGI: day 22.
In another data set the target is Axl kinase (Homo sapiens (Human), UniProt P30530). Briefly: HTRF KinEASE TK kinase inhibition assay, Axl. The class given is biochemical. For orientation: TR-FRET usually uses a lanthanide donor and a delayed reading to cut background.
Data set [1] can be described thus: In vivo pharmacokinetic study in rats. The protocol: An In Vivo Pharmacokinetic Study in Rats
For intravenous injection, rats are given a dose of 1 mg/kg. For oral administration, rats are given a dose of 5 mg/kg. […] The whole blood is centrifuged at 8000 rpm for 5 min to collect plasma, which is then transferred to 96-well pallet, and stored at −20° C. till LC-MS/MS testing.
Pharmacokinetic parameters among rats after medication are estimated using the non-compartment model of software WinNonlin.
The peak concentration, Cmax: the actual measurements are used;

A further data set concerns the target RET (Homo sapiens (Human), UniProt P07949). Briefly: HTRF KinEASE TK kinase inhibition assay, RET. It counts as biochemical. On the procedure: A study on inhibition of protein kinases activity at in vitro biochemical level
Material and method: kinases such as c-Met, VEGFR-2, Axl and RET, obtained from Invitrogen; HTRF KinEASE; TK kit (Cisbio Company); 384-well plate (Greiner Company); ATP (Sigma Company), MgCl2 (Sigma Company); PHERAstar FS multifunctional plate reader (BMG Company); conventional centrifuge (StaiteXiangyi Company); incubator (Binder Company).
Preparation of working solution of the compounds: Before test, aliquots of the compounds are removed from the refrigerator, and diluted with pure DMSO to 50× of the level needed; and then the compounds are diluted with deionized water to 4× of the level needed;
Preparation of 1.33× enzymatic buffer: 5× enzymatic buffer (from HTRF kit) is diluted to 1.33× with deionized water, and appropriate components of the final level 1.33× are added: 1.33 mmol/L dithiothreitol (DTT) and 1.33 mmol/L MgCl2;
Preparation of kinase working solution: Met is diluted to 2× final level required, 0.2 ng/μL, with 1.33× enzymatic buffer; […]
Reading HTRF signal: PHERAstar FS is used to read the testing signal, and its setting is as following:
For the original data read from each well, ratio=665 nm/620 nm; […]

The target of the next data set is c-Met (h) (Homo sapiens (Human), UniProt P08581). As to the kind of experiment: HTRF KinEASE TK kinase inhibition assay, c-Met. The class given is biochemical.
Sequence of c-Met (h) (P08581 25-1390): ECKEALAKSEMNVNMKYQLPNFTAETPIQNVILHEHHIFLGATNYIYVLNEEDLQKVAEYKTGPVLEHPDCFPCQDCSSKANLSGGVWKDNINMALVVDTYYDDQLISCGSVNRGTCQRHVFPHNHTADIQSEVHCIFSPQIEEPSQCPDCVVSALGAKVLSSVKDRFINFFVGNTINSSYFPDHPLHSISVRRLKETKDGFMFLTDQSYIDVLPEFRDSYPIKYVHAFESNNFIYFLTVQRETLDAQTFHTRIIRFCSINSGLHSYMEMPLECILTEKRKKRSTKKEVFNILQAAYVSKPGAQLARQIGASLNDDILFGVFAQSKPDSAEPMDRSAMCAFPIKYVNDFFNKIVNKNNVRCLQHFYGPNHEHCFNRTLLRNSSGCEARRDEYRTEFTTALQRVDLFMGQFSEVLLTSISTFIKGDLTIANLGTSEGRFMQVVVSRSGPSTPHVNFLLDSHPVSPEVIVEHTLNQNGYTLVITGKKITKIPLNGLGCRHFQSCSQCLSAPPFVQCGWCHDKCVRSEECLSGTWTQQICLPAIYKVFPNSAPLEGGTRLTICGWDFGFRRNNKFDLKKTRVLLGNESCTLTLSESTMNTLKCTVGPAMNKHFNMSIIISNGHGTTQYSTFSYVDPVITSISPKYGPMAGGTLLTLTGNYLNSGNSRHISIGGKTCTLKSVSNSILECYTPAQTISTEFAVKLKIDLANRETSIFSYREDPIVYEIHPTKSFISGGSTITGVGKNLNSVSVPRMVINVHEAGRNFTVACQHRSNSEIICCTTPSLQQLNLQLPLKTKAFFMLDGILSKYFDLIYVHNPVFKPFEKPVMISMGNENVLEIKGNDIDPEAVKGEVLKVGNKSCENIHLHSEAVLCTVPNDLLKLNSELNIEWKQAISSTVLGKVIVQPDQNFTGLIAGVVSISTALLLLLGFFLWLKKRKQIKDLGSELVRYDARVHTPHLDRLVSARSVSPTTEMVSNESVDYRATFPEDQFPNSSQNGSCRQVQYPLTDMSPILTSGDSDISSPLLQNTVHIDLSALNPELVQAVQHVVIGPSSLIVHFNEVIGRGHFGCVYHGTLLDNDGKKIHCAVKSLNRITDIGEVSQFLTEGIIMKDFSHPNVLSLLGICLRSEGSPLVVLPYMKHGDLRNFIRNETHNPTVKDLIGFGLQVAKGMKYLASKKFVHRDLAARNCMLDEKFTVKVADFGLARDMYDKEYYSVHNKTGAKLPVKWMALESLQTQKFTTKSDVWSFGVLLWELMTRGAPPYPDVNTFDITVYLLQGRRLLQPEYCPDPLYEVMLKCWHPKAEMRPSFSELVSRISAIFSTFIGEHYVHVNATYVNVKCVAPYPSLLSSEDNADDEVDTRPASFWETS

Sequence of RET (P07949 29-1114): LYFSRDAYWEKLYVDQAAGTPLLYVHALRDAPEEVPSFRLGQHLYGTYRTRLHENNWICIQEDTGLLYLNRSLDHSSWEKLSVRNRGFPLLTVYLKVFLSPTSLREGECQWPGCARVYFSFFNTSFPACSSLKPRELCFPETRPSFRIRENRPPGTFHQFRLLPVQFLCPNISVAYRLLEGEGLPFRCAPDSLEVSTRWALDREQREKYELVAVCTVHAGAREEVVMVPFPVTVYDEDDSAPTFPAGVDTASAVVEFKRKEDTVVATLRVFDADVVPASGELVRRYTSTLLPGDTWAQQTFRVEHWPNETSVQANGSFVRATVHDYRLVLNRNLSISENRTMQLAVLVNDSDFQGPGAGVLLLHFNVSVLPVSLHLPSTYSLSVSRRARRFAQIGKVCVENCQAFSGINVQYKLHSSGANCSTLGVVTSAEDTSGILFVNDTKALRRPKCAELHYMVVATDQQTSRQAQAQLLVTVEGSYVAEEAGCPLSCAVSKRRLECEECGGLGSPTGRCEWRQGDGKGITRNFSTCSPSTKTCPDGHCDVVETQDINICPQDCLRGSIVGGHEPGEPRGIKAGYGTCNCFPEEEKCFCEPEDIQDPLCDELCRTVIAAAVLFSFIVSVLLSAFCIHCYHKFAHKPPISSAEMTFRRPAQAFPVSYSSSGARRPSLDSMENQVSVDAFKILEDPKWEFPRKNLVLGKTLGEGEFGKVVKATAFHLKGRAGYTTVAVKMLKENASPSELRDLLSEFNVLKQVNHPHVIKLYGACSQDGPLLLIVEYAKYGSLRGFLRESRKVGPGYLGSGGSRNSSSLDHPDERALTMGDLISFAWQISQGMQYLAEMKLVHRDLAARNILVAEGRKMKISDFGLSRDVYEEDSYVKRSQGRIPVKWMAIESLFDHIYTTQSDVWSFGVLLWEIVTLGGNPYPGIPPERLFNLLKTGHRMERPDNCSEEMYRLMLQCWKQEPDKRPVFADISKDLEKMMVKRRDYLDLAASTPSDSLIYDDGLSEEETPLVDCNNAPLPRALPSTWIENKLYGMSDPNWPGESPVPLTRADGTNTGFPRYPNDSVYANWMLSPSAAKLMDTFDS
Sequence of Axl kinase (P30530 26-894): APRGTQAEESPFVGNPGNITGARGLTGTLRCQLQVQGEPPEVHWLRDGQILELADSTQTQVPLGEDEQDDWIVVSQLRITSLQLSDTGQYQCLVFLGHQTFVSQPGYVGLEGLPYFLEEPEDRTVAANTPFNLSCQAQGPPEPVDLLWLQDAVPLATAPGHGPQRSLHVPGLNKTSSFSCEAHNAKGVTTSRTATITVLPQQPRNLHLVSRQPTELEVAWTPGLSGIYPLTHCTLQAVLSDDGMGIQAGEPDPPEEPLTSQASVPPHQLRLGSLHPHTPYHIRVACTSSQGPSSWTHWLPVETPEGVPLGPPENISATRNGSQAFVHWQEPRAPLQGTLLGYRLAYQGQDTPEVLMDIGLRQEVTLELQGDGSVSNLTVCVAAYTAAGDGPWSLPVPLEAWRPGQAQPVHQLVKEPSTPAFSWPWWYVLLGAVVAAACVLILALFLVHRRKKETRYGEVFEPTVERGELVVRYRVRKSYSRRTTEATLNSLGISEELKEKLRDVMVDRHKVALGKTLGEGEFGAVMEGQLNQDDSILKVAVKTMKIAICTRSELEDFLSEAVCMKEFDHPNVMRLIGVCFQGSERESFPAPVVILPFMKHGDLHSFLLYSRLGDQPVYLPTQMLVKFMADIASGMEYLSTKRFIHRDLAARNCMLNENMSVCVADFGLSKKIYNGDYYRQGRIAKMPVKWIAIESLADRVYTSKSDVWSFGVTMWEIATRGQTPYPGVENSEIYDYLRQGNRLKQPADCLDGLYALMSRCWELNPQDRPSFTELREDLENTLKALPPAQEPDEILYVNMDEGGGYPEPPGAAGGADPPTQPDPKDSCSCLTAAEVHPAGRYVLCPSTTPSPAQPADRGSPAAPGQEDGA

The IC50 is the point on the concentration scale where inhibition reaches its midpoint. Higher therefore signals weaker potency. Usually Vz stands for the apparent volume that relates the amount in the body to the concentration in plasma or blood. A higher Vz goes with extensive tissue distribution. As usually defined, the AUC(0-t) is the area under the concentration-time curve up to a stated or last time point. Read a low AUC(0-t) as low exposure. For orientation: Cmax means the maximum level reached in the sampled fluid or tissue. The clearance is the volume of plasma or blood freed of the substance per unit of time. Low readings indicate inefficient removal, high ones efficient removal. A word on the half-life: it is how long it takes for the measured level to halve. Read a high half-life as slow decline. Broadly, the bioavailability is dose-corrected exposure relative to a reference, in per cent. For `CC(C)(O)COc1ccc2c(Oc3ccc(Nc4nccc5[nH]cc(-c6ccc(F)cc6)c(=O)c45)cc3F)ccnc2c1` [Example 4, 5-((3-fluoro-4-((7-(2-hydroxy-2-methylpropoxy)quinolin-4-yl)oxy)phenyl)amino)-3-(4-fluorophenyl)-1,6-naphthyridin-4(1H)-one], the “Tumor growth inhibition rate, % TGI” value with U87MG tumor (3 mg/kg p.o. QD) stood at 87.0%. Also, the “Tumor growth inhibition rate, % TGI” value in the data set with U87MG tumor (10 mg/kg p.o. QD) turned out to be 105.9%. Moreover, the “Regression of tumor (tumor regression rate)” value in the data set with U87MG tumor (6 animals per group) is listed as “is 100% (6/6)”. For the same compound, half-maximal inhibition on Axl kinase (IC50) was put at 15.7 nM. In data set [1] (5 mg/kg i.g.), this compound came in with a CL of 2 mL/min/kg and a volume of distribution (Vz) of 1.46 L/kg. For the same compound, in data set [1] (rat, plasma, iv, 1 mg/kg i.v.), the AUC(0-t) is 11500 ng·h/mL, the peak concentration (Cmax) amounted to 10800 ng/mL, the clearance was 0.5 mL/min/kg and the half-life was 9.97 h. Further, the Vd in data set [1] (rat, plasma, iv, 1 mg/kg i.v., read-out: Vz) worked out at 0.47 L/kg. Moreover, in data set [1] (rat, plasma, oral, 5 mg/kg i.g. vs 1 mg/kg i.v., read-out: F (absolute bioavailability)), the bioavailability came to 71.8%. Besides, in data set [1] (rat, plasma, po, 5 mg/kg i.g.), the AUC(0-t) came out at 41300 ng·h/mL, the peak level (Cmax) was 4310 ng/mL and the half-life was 8.37 h. This compound also returned an IC50 against RET of 62 nM.

On to `CC(C)(O)COc1ccc2c(Oc3ccc(Nc4nccc5[nH]cc(-c6ccccc6)c(=O)c45)cc3F)ccnc2c1` [Example 7, 5-((3-fluoro-4-((7-(2-hydroxy-2-methylpropoxy)quinolin-4-yl)oxy)phenyl)amino)-3-phenyl-1,6-naphthyridin-4(1H)-one], for which the IC50 against c-Met (h) was 7.4 nM; against Axl kinase, 14.9 nM; against RET it was 53 nM.

The values are drawn from US9938274B1, “Naphthyridine compounds, medical combinations and use thereof” (Nanjing Natinefy Pharmatech Co., Ltd., priority 2016, dated 2018).
